Results taken from patent US8987195B2 (priority 2012, dated 2015).
Read-outs that look alike come from different tables or passages of the source.

How the values were obtained:
HCV genotype 1b replicon = test: HCV replicon assay, genotype 1b replicon EC50; format: cell-based, Hepatitis C virus; details: Hepatitis C virus, read-out: EC50 [gt-1b]
Method in brief: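 Replicon cells (Neo^r, some luciferase:Neo^r fusion); G418 removed at plating; compound dilution series, 24-48 h. Readout: RNA by 32P-probe hybridization/protection or TaqMan, normalized to cyclophilin A RNA, or luciferase. EC50 vs DMSO control, 4-parameter fit.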

[1] = target: HCV NS3/4A protease genotype 1b (Hepatitis C virus genotype 1b, UniProt P26663); test: HCV NS3/4A protease time-resolved fluorescence (TRF) assay, Ki against genotype 1b; format: biochemical
Method in brief: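 Time-resolved fluorescence readout of NS3/4A cleavage of 25 nM europium-labelled peptide over 2.5 h at room temperature, enzyme levels set for signal/background 10–30 (0.2, 0.4, 0.025 nM for 1b, A156T, 3a). Ki by IC50=Ki(1+[S]/KM).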

[2] = IC50 [gt-1b], NS3/4A protease TRF assay, genotype 1b enzyme 0.2 nM
[3] = IC50 [gt-1b] (nM), NS3/4A genotype 1b, enzyme 0.2 nM
[4] = IC50 [gt-1b] (nM), NS3/4A genotype 1b, enzyme 0.2 nM, K+ salt

COc1ccc2nc(C)c3c(c2c1)CC[C@]1(C[C@H]2C(=O)N[C@]4(C(=O)NS(=O)(=O)C5(C)CC5)C[C@H]4/C=C\CCCCC[C@H](Nc4cccc(OC)n4)C(=O)N2C1)O3 [Example 431, (2R,6S,12Z,13aS,14aR,16aS)-9′-methoxy-6-[(6-methoxypyridin-2-yl)amino]-5′-methyl-N-[(1-methylcyclopropyl)sulfonyl]-5,16-dioxo-1,1′,2′,6,7,8,9,10,11,13a,14,15,16,16a-tetradecahydrospiro[cyclopropa[e]pyrrolo[1,2-a][1,4]diazacyclopentadecine-2,3′-pyrano[2,3-c]quinoline]-14a(5H)-carboxamide]
EC50 (HCV genotype 1b replicon; HCV replicon, genotype 1b): 9.12 nM
IC50 [1, 2]: 0.209 nM

Cc1nc2ccccc2c2c1O[C@]1(CC2)C[C@H]2C(=O)N[C@]3(C(=O)NS(=O)(=O)C4(C)CC4)C[C@H]3/C=C\CCCCC[C@H](NC(=O)OC(C)(C(F)(F)F)C(F)(F)F)C(=O)N2C1 [Example 307, 1,1,1,3,3,3-hexafluoro-2-methylpropan-2-yl [(2R,6S,12Z,13aS,14aR,16aS)-5′-methyl-14a-{[(1-methylcyclopropyl)sulfonyl]carbamoyl}-5,16-dioxo-1,1′,2′,5,6,7,8,9,10,11,13a,14,14a,15,16,16a-hexadecahydrospiro[cyclopropa[e]pyrrolo[1,2-a][1,4]diazacyclopentadecine-2,3′-pyrano[2,3-c]quinolin]-6-yl]carbamate]
EC50 (HCV genotype 1b replicon; genotype 1b replicon): 1080 nM
IC50 [1, 3]: 0.019 nM

COc1ccc2nc(C(F)(F)F)c3c(c2c1)CC[C@]1(C[C@H]2C(=O)N[C@]4(C(=O)NS(=O)(=O)C5(C)CC5)C[C@H]4/C=C\CCCCC[C@H](NC(=O)OC4(C)CC4)C(=O)N2C1)O3 [Example 216, 1-methylcyclopropyl [(2R,6S,12Z,13aS,14aR,16aS)-9′-methoxy-14a-{[(1-methylcyclopropyl)sulfonyl]carbamoyl}-5,16-dioxo-5′-(trifluoromethyl)-1,1′,2′,5,6,7,8,9,10,11,13a,14,14a,15,16,16a-hexadecahydrospiro[cyclopropa[e]pyrrolo[1,2-a][1,4]diazacyclopentadecine-2,3′-pyrano[2,3-c]quinolin]-6-yl]carbamate]
EC50 (HCV genotype 1b replicon; genotype 1b replicon): 6.43 nM
IC50 [1, 3]: 0.013 nM

Cc1ccc2nc(C(F)(F)F)c3c(c2c1)CC[C@]1(C[C@H]2C(=O)N[C@]4(C(=O)NS(=O)(=O)C5(C)CC5)C[C@H]4/C=C\CCCCC[C@H](NC(=O)OCCCN4CCOCC4)C(=O)N2C1)O3 [Example 424, 3-(morpholin-4-yl)propyl [(2R,6S,12Z,13aS,14aR,16aS)-9′-methyl-14a-{[(1-methylcyclopropyl)sulfonyl]carbamoyl}-5,16-dioxo-5′-(trifluoromethyl)-1,1′,2′,5,6,7,8,9,10,11,13a,14,14a,15,16,16a-hexadecahydrospiro[cyclopropa[e]pyrrolo[1,2-a][1,4]diazacyclopentadecine-2,3′-pyrano[2,3-c]quinolin]-6-yl]carbamate]
EC50 (HCV genotype 1b replicon; HCV replicon, genotype 1b): 15.1 nM
IC50 [1, 2]: 0.033 nM

Cc1nc2ccccc2c2c1O[C@]1(CC2)C[C@H]2C(=O)N[C@]3(C(=O)NS(=O)(=O)C4(C)CC4)C[C@H]3/C=C\CCCCC[C@H](NC(=O)OC(CN(C)S(C)(=O)=O)C(C)(C)C)C(=O)N2C1 (single isomer, unassigned) [Example 259]
EC50 (HCV genotype 1b replicon; genotype 1b replicon): 24 nM
IC50 [1, 3]: 0.007 nM

Cc1nc2ccccc2c2c1O[C@]1(CC2)C[C@H]2C(=O)N[C@]3(C(=O)NS(=O)(=O)C4(C)CC4)C[C@H]3/C=C\CCCCC[C@H](Nc3cccc(F)c3)C(=O)N2C1 [Example 345, (2R,6S,12Z,13aS,14aR,16aS)-6-[(3-fluorophenyl)amino]-5′-methyl-N-[(1-methylcyclopropyl)sulfonyl]-5,16-dioxo-1,1′,2′,6,7,8,9,10,11,13a,14,15,16,16a-tetradecahydrospiro[cyclopropa[e]pyrrolo[1,2-a][1,4]diazacyclopentadecine-2,3′-pyrano[2,3-c]quinoline]-14a(5H)-carboxamide]
EC50 (HCV genotype 1b replicon; genotype 1b replicon): 6.59 nM
IC50 [1, 3]: 0.428 nM

CCc1nc2ccc(OC)cc2c2c1O[C@]1(CC2)C[C@H]2C(=O)N[C@]3(C(=O)NS(=O)(=O)C4(C)CC4)C[C@H]3/C=C\CCCCC[C@H](NC(=O)O[C@@H](C)C3CC3)C(=O)N2C1 [Example 486, (1S)-1-cyclopropylethyl [(2R,6S,12Z,13aS,14aR,16aS)-5′-ethyl-9′-methoxy-14a-{[(1-methylcyclopropyl)sulfonyl]carbamoyl}-5,16-dioxo-1,1′,2′,5,6,7,8,9,10,11,13a,14,14a,15,16,16a-hexadecahydrospiro[cyclopropa[e]pyrrolo[1,2-a][1,4]diazacyclopentadecine-2,3′-pyrano[2,3-c]quinolin]-6-yl]carbamate]
EC50 (HCV genotype 1b replicon; HCV replicon, genotype 1b): 15.2 nM
IC50 [1, 2]: 0.01 nM

COc1ccc2nc(C(C)C)c3c(c2c1)C(F)(F)C[C@]1(C[C@H]2C(=O)N[C@]4(C(=O)NS(=O)(=O)C5(C)CC5)C[C@H]4/C=C\CCCCC[C@H](NC(=O)OCC(C)C)C(=O)N2C1)O3 [Example 211, 2-methylpropyl [(2S,6S,12Z,13aS,14aR,16aS)-1′,1′-difluoro-9′-methoxy-14a-{[(1-methylcyclopropyl)sulfonyl]carbamoyl}-5,16-dioxo-5′-(propan-2-yl)-1,1′,2′,5,6,7,8,9,10,11,13a,14,14a,15,16,16a-hexadecahydrospiro[cyclopropa[e]pyrrolo[1,2-a][1,4]diazacyclopentadecine-2,3′-pyrano[2,3-c]quinolin]-6-yl]carbamate]
EC50 (HCV genotype 1b replicon; genotype 1b replicon): 3.54 nM
IC50 [1, 3]: 0.006 nM

Cc1nc2ccc(C3CC3)cc2c2c1O[C@]1(CC2)C[C@H]2C(=O)N[C@]3(C(=O)NS(=O)(=O)C4(C)CC4)C[C@H]3/C=C\CCCCC[C@H](NC(=O)OC(C)(C)C)C(=O)N2C1 [Example 332, tert-butyl [(2R,6S,12Z,13aS,14aR,16aS)-9′-cyclopropyl-5′-methyl-14a-{[(1-methylcyclopropyl)sulfonyl]carbamoyl}-5,16-dioxo-1,1′,2′,5,6,7,8,9,10,11,13a,14,14a,15,16,16a-hexadecahydrospiro[cyclopropa[e]pyrrolo[1,2-a][1,4]diazacyclopentadecine-2,3′-pyrano[2,3-c]quinolin]-6-yl]carbamate]
EC50 (HCV genotype 1b replicon; genotype 1b replicon): 2.69 nM
IC50 [1, 3]: 0.017 nM

CC1(S(=O)(=O)NC(=O)[C@@]23C[C@H]2/C=C\CCCCC[C@H](NC(=O)OC2CCCC2)C(=O)N2C[C@@]4(CCc5c(c(C(F)(F)F)nc6ccccc56)O4)C[C@H]2C(=O)N3)CC1 [Example 148, cyclopentyl [(2R,6S,12Z,13aS,14aR,16aS)-14a-{[(1-methylcyclopropyl)sulfonyl]carbamoyl}-5,16-dioxo-5′-(trifluoromethyl)-1,1′,2′,5,6,7,8,9,10,11,13a,14,14a,15,16,16a-hexadecahydrospiro[cyclopropa[e]pyrrolo[1,2-a][1,4]diazacyclopentadecine-2,3′-pyrano[2,3-c]quinolin]-6-yl]carbamate]
EC50 (HCV genotype 1b replicon; genotype 1b replicon, K+ salt): 0.195 nM
IC50 [1, 4]: 0.011 nM

Cc1nc2cc(Cl)ccc2c2c1O[C@]1(CC2)C[C@H]2C(=O)N[C@]3(C(=O)NS(=O)(=O)C4(C)CC4)C[C@H]3/C=C\CCCCC[C@H](NC(=O)OCC(C)(C)C)C(=O)N2C1 [Example 235, 2,2-dimethylpropyl [(2R,6S,12Z,13aS,14aR,16aS)-8′-chloro-5′-methyl-14a-{[(1-methylcyclopropyl)sulfonyl]carbamoyl}-5,16-dioxo-1,1′,2′,5,6,7,8,9,10,11,13a,14,14a,15,16,16a-hexadecahydrospiro[cyclopropa[e]pyrrolo[1,2-a][1,4]diazacyclopentadecine-2,3′-pyrano[2,3-c]quinolin]-6-yl]carbamate]
EC50 (HCV genotype 1b replicon; genotype 1b replicon, K+ salt): 4.31 nM
IC50 [1, 4]: 0.027 nM

CC(C)(C)COC(=O)N[C@H]1CCCCC/C=C\[C@@H]2C[C@@]2(C(=O)NS(=O)(=O)C2(C)CC2)NC(=O)[C@@H]2C[C@]3(CCc4c(c(C5CC5)nc5ccc6c(c45)OCO6)O3)CN2C1=O [Example 324, 2,2-dimethylpropyl [(2R,6S,12Z,13aS,14aR,16aS)-7′-cyclopropyl-14a-{[(1-methylcyclopropyl)sulfonyl]carbamoyl}-5,16-dioxo-1,5,6,7,8,9,10,10′,11,11′,13a,14,14a,15,16,16a-hexadecahydrospiro[cyclopropa[e]pyrrolo[1,2-a][1,4]diazacyclopentadecine-2,9′-[1,3]dioxolo[4,5-f]pyrano[2,3-c]quinolin]-6-yl]carbamate]
EC50 (HCV genotype 1b replicon; genotype 1b replicon): 3.62 nM
IC50 [1, 3]: 0.022 nM

CC(C)(OC(=O)N[C@H]1CCCCC/C=C\[C@@H]2C[C@@]2(C(=O)NS(=O)(=O)C2(C)CC2)NC(=O)[C@@H]2C[C@]3(CCc4c(c(C(F)F)nc5ccc(Cl)cc45)O3)CN2C1=O)C(F)(F)F [Example 334, 1,1,1-trifluoro-2-methylpropan-2-yl [(2R,6S,12Z,13aS,14aR,16aS)-9′-chloro-5′-(difluoromethyl)-14a-{[(1-methylcyclopropyl)sulfonyl]carbamoyl}-5,16-dioxo-1,1′,2′,5,6,7,8,9,10,11,13a,14,14a,15,16,16a-hexadecahydrospiro[cyclopropa[e]pyrrolo[1,2-a][1,4]diazacyclopentadecine-2,3′-pyrano[2,3-c]quinolin]-6-yl]carbamate]
EC50 (HCV genotype 1b replicon; genotype 1b replicon): 5.59 nM
IC50 [1, 3]: 0.019 nM
